The values that follow come from ChEMBL document CHEMBL1681705, “Optimisation of ITK inhibitors through successive iterative design cycles” (Bioorg Med Chem Lett, 2011).

Test [1] concerns the target T1, Tyrosine-protein kinase ITK/TSK (Homo sapiens, UniProt Q08881).
T1 sequence (Q08881 whole entry): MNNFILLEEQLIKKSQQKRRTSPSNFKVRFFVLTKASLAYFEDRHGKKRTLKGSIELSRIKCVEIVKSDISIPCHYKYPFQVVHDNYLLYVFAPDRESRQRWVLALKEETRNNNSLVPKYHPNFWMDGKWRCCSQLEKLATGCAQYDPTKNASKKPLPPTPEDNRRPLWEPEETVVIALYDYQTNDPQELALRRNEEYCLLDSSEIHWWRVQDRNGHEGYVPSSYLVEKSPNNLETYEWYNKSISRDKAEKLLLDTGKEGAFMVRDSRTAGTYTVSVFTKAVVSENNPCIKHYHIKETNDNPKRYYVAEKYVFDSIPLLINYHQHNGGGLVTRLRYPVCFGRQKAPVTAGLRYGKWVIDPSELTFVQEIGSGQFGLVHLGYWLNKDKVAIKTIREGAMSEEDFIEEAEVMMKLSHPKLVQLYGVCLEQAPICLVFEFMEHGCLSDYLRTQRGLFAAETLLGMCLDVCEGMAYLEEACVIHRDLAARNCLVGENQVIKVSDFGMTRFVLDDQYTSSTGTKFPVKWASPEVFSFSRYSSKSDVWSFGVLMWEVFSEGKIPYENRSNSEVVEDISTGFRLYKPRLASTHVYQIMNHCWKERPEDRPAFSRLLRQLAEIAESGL
As to the kind of experiment: Inhibition of recombinant GST-tagged full-length ITK expressed in baculovirus expression system after 30 mins by scintillation proximity assay. On the technique in general: SPA uses beads or plates that emit light when radiolabelled molecules are held near them.

Another test in a line: cells. To be noted: Homo sapiens, T-cell.

As usually defined, the IC50 is the concentration that gives 50% inhibition.

Molecules are shown by their SMILES.

Description for cells: Antiinflammatory activity in human CD4+ T cell assessed as inhibition of anti-CD3/anti-CD28-induced IL-2 production treated 30 mins before anti-CD3/anti-CD28 challenge measured after 48 hrs by electro-chemiluminescence assay

`Cc1ccc2cc(-c3n[nH]c4cc(NC(=O)c5ccccc5)ccc34)[nH]c2c1`: the IC50 in test [1] is greater than 50000 nM.
Take `COCCN(C)C(=O)c1ccc2cc(-c3n[nH]c4ccccc34)[nH]c2c1`: the results for the IC50 (in the test “cells”; in test [1]) were 2000 nM and 70 nM, respectively.
In “cells”, `CCN(CC)C(=O)c1ccc2cc(-c3n[nH]c4ccccc34)[nH]c2c1` had an IC50 of 2100 nM.
As for `Cc1ccc2cc(-c3n[nH]c4ccc(NC(=O)Nc5c(C)noc5C)cc34)[nH]c2c1`, the IC50 in “cells” worked out at 300 nM; in test [1] it was 72 nM.
The matching figures for `CN(Cc1ccccc1)C(=O)c1ccc2cc(-c3n[nH]c4ccccc34)[nH]c2c1`: 9400 nM and 60 nM.
As to `CC(=O)N1CCC(Nc2ccc3[nH]nc(-c4cc5ccc(C)cc5[nH]4)c3c2)CC1`, in test [1], the IC50 amounted to 370 nM.
For `c1cnc2c(-c3cc4ccc(CC5CCC5)cc4[nH]3)n[nH]c2c1`, the IC50 in test [1] turned out to be 350 nM.
On the same count and under the same terms, in the case of `Cc1ccc2cc(-c3n[nH]c4ccc(NCC(C)C)cc34)[nH]c2c1` it was 860 nM.
With `NC(=O)Cc1ccc2cc(-c3n[nH]c4cccnc34)[nH]c2c1`, the IC50 in “cells” came out at 1000 nM; in test [1], 100 nM.
Compound `c1ccc2c(-c3cc4ccc(NCC5CCCCC5)cc4[nH]3)n[nH]c2c1` gave an IC50 in “cells” of 3800 nM.
For the compound `CN(C)CCc1ccc2cc(-c3n[nH]c4cccnc34)[nH]c2c1`, in test [1], the IC50 turned out to be 1000 nM.
As to `CCNC(=O)Nc1ccc2[nH]nc(-c3cc4ccc(C)cc4[nH]3)c2c1`, the IC50 in “cells” is 600 nM; in test [1], 83 nM.
In the case of `CN(Cc1ccco1)C(=O)c1ccc2cc(-c3n[nH]c4ccccc34)[nH]c2c1`, in test [1], the IC50 worked out at 110 nM.
Turning to `Cc1ccc2cc(-c3n[nH]c4ccc(NS(=O)(=O)c5sc(C)nc5C)cc34)[nH]c2c1`, the IC50 was 2000 nM in the test “cells” and 190 nM in test [1].
Turning to `c1ccc2c(-c3cc4ccc(N5CCOCC5)cc4[nH]3)n[nH]c2c1`, the IC50 in the test “cells” is 1200 nM; in test [1] it was 120 nM.
As for `Cc1ccc2cc(-c3n[nH]c4cc(NC(=O)C5CCCCC5)ccc34)[nH]c2c1`, in test [1], the IC50 was greater than 50000 nM.
On the same count and under the same terms, under `CN(c1ccccc1)c1ccc2cc(-c3n[nH]c4ccccc34)[nH]c2c1` stands 310 nM.
`Cc1ccc2cc(-c3n[nH]c4ccc(NC(=O)CN(C)C)cc34)[nH]c2c1` yielded an IC50 in “cells” of 600 nM.
`Cc1ccc2cc(-c3n[nH]c4ccc(NC(=O)Nc5ccccc5)cc34)[nH]c2c1`: the concentration for half-maximal inhibition (IC50) in test [1] was 730 nM.
The same measure, in the same setting: in the case of `CN(C)CC#Cc1ccc2cc(-c3n[nH]c4cccnc34)[nH]c2c1` it was 110 nM.
Consider `CC(=O)Nc1ccc2[nH]nc(-c3cc4ccc(C)cc4[nH]3)c2c1`, for which inhibition in the test “cells” was half-maximal at 1000 nM (IC50).
Consider `Cc1ccc2cc(-c3n[nH]c4ccc(NC(=O)NC5CCCCC5)cc34)[nH]c2c1`, for which the results for the IC50 (in the test “cells”; in test [1]) were 3200 nM and 780 nM, respectively.
As to `Cc1ccc2cc(-c3n[nH]c4ccc(NC5CCNCC5)cc34)[nH]c2c1`, the IC50 in “cells” was 90 nM.
In the case of `Cc1ccc2cc(-c3n[nH]c4ccc(NC(=O)c5ccco5)cc34)[nH]c2c1`, the IC50 in test [1] came out at 530 nM.
As for `Cn1cncc1CNC(=O)c1ccc2cc(-c3n[nH]c4ccccc34)[nH]c2c1`, the IC50 in test [1] was 20 nM.
For the compound `O=C(NCc1ccccc1)c1ccc2cc(-c3n[nH]c4ccccc34)[nH]c2c1`, in “cells”, the IC50 stood at 4100 nM.
Regarding `Cc1ccc2cc(-c3n[nH]c4ccc(NS(=O)(=O)c5c(C)nn(C)c5C)cc34)[nH]c2c1`, the IC50 turned out to be 1000 nM in “cells” and 85 nM in test [1].
As for `Cc1ccc2cc(-c3n[nH]c4ccc(NS(=O)(=O)c5ccccc5F)cc34)[nH]c2c1`, the IC50 in the test “cells” worked out at 1000 nM.
`Cc1ccc2cc(-c3n[nH]c4ccc(NC5CCN(Cc6ccccc6)C5)cc34)[nH]c2c1` (stereo not given): the half-maximal inhibitory concentration (IC50) in “cells” was found to be 350 nM; in test [1], 30 nM.
In “cells”, `Cc1ccc2cc(-c3n[nH]c4ccc(NS(=O)(=O)c5cccc(F)c5)cc34)[nH]c2c1` displayed an IC50 of 800 nM.
As for `Cc1ccc2cc(-c3n[nH]c4ccc(NC(=O)NCc5ccccc5)cc34)[nH]c2c1`, the IC50 in test [1] worked out at 750 nM.
The same measure, in the same setting: under `C(#Cc1ccc2cc(-c3n[nH]c4cccnc34)[nH]c2c1)CCc1cccnc1` stands 500 nM.
With `Cc1ccc2cc(-c3n[nH]c4ccc(NS(=O)(=O)c5c(C)noc5C)cc34)[nH]c2c1`, the half-inhibitory concentration (IC50) in “cells” is 500 nM; in test [1], 130 nM.
As to `CC(C)CN(C)C(=O)c1ccc2cc(-c3n[nH]c4ccccc34)[nH]c2c1`, the IC50 in “cells” amounted to 1600 nM.
On to `COc1cccc(S(=O)(=O)Nc2ccc3[nH]nc(-c4cc5ccc(C)cc5[nH]4)c3c2)c1`, for which, in the test “cells”, the IC50 came out at 900 nM.
Turning to `Cc1ccc2cc(-c3n[nH]c4ccc(NC5CCC5)cc34)[nH]c2c1`, in test [1], the IC50 came out at 620 nM.
The compound `COc1ccc(S(=O)(=O)Nc2ccc3[nH]nc(-c4cc5ccc(C)cc5[nH]4)c3c2)cc1` had an IC50 in “cells” of 700 nM.
Turning to `Cc1ccc2cc(-c3n[nH]c4ccc(NC(=O)NCc5ccco5)cc34)[nH]c2c1`, the IC50 in test [1] stood at 310 nM.
Regarding `Cc1ccc2cc(-c3n[nH]c4ccc(NS(=O)(=O)c5cn(C)cn5)cc34)[nH]c2c1`, the IC50 was 400 nM in “cells” and 26 nM in test [1].
The matching figures for `COCCc1ccc2cc(-c3n[nH]c4cccnc34)[nH]c2c1`: 600 nM and 70 nM.
With `O=C(NCC1CCCCC1)c1ccc2cc(-c3n[nH]c4ccccc34)[nH]c2c1`, 9500 nM corresponded to half-maximal inhibition in the test “cells” (IC50).
For `COCCNc1ccc2cc(-c3n[nH]c4ccccc34)[nH]c2c1`, the IC50 was 1200 nM in “cells” and 260 nM in test [1].
On to `Cc1ccc2cc(-c3n[nH]c4ccc(NS(=O)(=O)c5ccccc5)cc34)[nH]c2c1`, for which the IC50 in the test “cells” worked out at 400 nM.
In the case of `Cc1ccc2cc(-c3n[nH]c4ccc(NC(=O)C5CCOCC5)cc34)[nH]c2c1`, the IC50 in test [1] stood at 260 nM.
For the compound `Cc1ccc2cc(-c3n[nH]c4ccc(NC5CCN(C)CC5)cc34)[nH]c2c1`, the IC50 in “cells” is 120 nM.
As to `Cc1ccc2cc(-c3n[nH]c4ccc(NS(C)(=O)=O)cc34)[nH]c2c1`, the results for the IC50 (in “cells”; in test [1]) were 400 nM and 36 nM, respectively.
For `c1ccc(Cc2ccc3cc(-c4n[nH]c5cccnc45)[nH]c3c2)cc1`, the IC50 in test [1] came out at 210 nM.
On the same count and under the same terms, in the case of `COCC#Cc1ccc2cc(-c3n[nH]c4cccnc34)[nH]c2c1` it was 280 nM.
With `COCC(=O)Nc1ccc2[nH]nc(-c3cc4ccc(OC)cc4[nH]3)c2c1`, the IC50 in “cells” was found to be 500 nM.
As for `CCC(=O)Cc1ccc2cc(-c3n[nH]c4cccnc34)[nH]c2c1`, the IC50 in “cells” is 1100 nM; in test [1], 100 nM.
In the test “cells”, `Cc1ccc2cc(-c3n[nH]c4ccc(NS(=O)(=O)c5ccc(F)cc5)cc34)[nH]c2c1` had an IC50 of 2900 nM.
With `c1cnc2c(-c3cc4ccc(CC5CCCCC5)cc4[nH]3)n[nH]c2c1`, in test [1], the IC50 is 690 nM.
Turning to `Cc1ccc2cc(-c3n[nH]c4ccc(NCc5ccccc5)cc34)[nH]c2c1`, the IC50 in test [1] turned out to be 530 nM.
As to `Cc1ccc2cc(-c3n[nH]c4ccc(NCC5CCCCC5)cc34)[nH]c2c1`, the IC50 in test [1] was 1700 nM.
